# Data from patent US11926846B2, “Hydroxyurea to enhance sperm cells” (Meharry Medical College, priority 2017, dated 2024).
# Where “and” joins values, the source holds several entries; their conditions need not be identical. Equal values may be shown once.
# Assays:
# rats [1] = conditions: single dose; cited from earlier work
# rats [2] = assay: Oral LD50 in rats; conditions: rat oral LD50 divided by 1000
# [3] = system: human spermatozoa in semen samples; assay: Post-cool and post-thaw sperm motility after cryopreservation in freezing buffer with HU (Working Example 4); type: cell-based; conditions: FB+HU, final HU 1 μM, listed as HU
# Procedure: Post semen analysis was conducted of discarded and de-identified semen samples from Ovation Fertility Center that met the World Health Organization (WHO) criteria for normal semen samples. Those semen samples that met the WHO criteria for normal were divided into two halves. One half subjected to freezing with TEST-Yolk buffer (freezing buffer [FB]; Irvine Scientific, CA) containing 12% glycerol as cryoprotectant (control group). The remaining half of each sample was frozen with experimental freezing buffer composed of FB+HU (Sigma Aldridge, St. Louis; treatment group). Both control and experimental buffers were added on a 1:1 ratio to respective semen samples (v/v) in a dropwise manner. The final glycerol concentration in the semen+FB was 6% and the final HU concentration in semen+experimental freezing buffer was 1 μM to use a concentration of HU that is effective in inhibiting HIV replication. Pre-freeze sperm motility was determined for each sample prior to initiating the cooling arm of the freezing procedure. Samples in the control and treatment group were cooled for 24 hours to slow the HU induced vigorously motile cells in the treatment group. Subsequently, post cooling motility was determined prior to liquid nitrogen vapor phase freezing for 30 minutes before being stored immersed in LN for at least 24 hours before being thawed for analysis. […]
# [4] = system: human spermatozoa in semen samples; assay: Sperm motility after cooling in freezing buffer with HU before cryopreservation (Working Example 3); type: cell-based
# Procedure: Post semen analysis was conducted of discarded and de-identified semen samples from Ovation Fertility Center that met the World Health Organization (WHO) criteria for normal semen samples. Those semen samples that met the WHO criteria for normal were divided into two halves. One half was subjected to freezing with TEST-Yolk buffer (freezing buffer [FB]; Irvine Scientific, CA) containing 12% glycerol as cryoprotectant (control group). The remaining half of each sample was frozen with experimental freezing buffer composed of FB+HU (Sigma Aldridge, St. Louis; treatment group). Both control and experimental buffers were added on a 1:1 ratio to respective semen samples (v/v) in a dropwise manner. The final glycerol concentration in the semen+FB was 6%, and the final HU concentration in semen+experimental freezing buffer was 1 μM to use a concentration of HU that is effective in inhibiting HIV replication. Pre-freeze sperm motility was determined for each sample prior to initiating the cooling step of the freezing procedure. Samples in the control and treatment group were cooled for 24 hours to slow the HU-induced vigorously motile cells in the treatment group. Subsequently, post cooling motility was determined prior to liquid nitrogen vapor phase freezing for 30 minutes before being stored immersed in liquid nitrogen (LN) for at least 24 hours before being thawed for analysis. Samples were thawed at room temperature for 35 minutes prior to motility analysis.
# human sperm [5] = assay: Overall sperm motility after 24 hour culture with HU at HIV-suppressing concentrations (Working Example 2); type: cell-based; conditions: HTF-buffer, 37° C., control 70.3
# Procedure: Normal human semen was collected in 15 mL conical centrifuge tubes. Highly motile (i.e., Grade a) sperm were isolated and collected from the semen. The isolated highly motile sperm were washed in HTF medium containing 0.5% BSA (HTF-HEPES; pH 7.4) by centrifugation and suspended in bicarbonate (25 mM)-buffered HTF containing 0.5% (5 mg/ml) BSA (36; pH 7.4). Subsequently, each sperm suspension was incubated at 37° C. in an atmosphere of 5.0% CO2 in humidified air until aliquoted into the different treatment groups: a control group and a hydroxyurea processed group.
# (§1) The control group was cultured in HTF-buffer containing 0 μg HU/mL at 37° C. in an atmosphere of 5.0% CO2 in humidified air for 24 hours. After the 24 hour culture, the control sperm were evaluated for pattern and degree of motility.
# The hydroxyurea processed groups were cultured in HTF-buffer in two groups containing different concentrations of HU: (1) 1.0 mM HU and (2) 2.0 mM HU. The groups were cultured at 37° C. in an atmosphere of 5.0% CO2 in humidified air for 24 hours. After the 24 hour culture, the hydroxyurea processed sperm were evaluated for pattern and degree of motility.
# Thus, it had been previously believed that HU was an unsuitable agent to suppress HIV replication and/or activation in semen, or to reduce the risk of HIV transmission, via HU treatment of reproductive cells.
# human sperm [6] = assay: Sperm motility after 24 hour culture in HTF-buffer containing HU (Working Example 1); type: cell-based; conditions: 18 μg HU/mL, 37° C.
# Procedure: Human sperm was processed with HU to show enhanced motility over human sperm not processed with HU. Normal human semen was collected in 15 mL conical centrifuge tubes. Highly motile (i.e., Grade a) sperm were isolated and collected from the semen. The isolated highly motile sperm were washed in an HTF medium (HTF-HEPES; pH 7.4) containing 0.5% Bovine Serum Albumin (“BSA”) by centrifugation and suspended in bicarbonate (25 mM)-buffered HTF containing 0.5% (5 mg/ml) BSA (36; pH 7.4). Subsequently, each sperm suspension was incubated at 37° C. in an atmosphere of 5.0% CO2 in humidified air until aliquoted into the different treatment groups: a control group and a hydroxyurea processed group.
# as §1
# The hydroxyurea processed group was cultured in HTF-buffer containing 18 μg HU/mL at 37° C. in an atmosphere of 5.0% CO2 in humidified air for 24 hours. After the 24 hour culture, the hydroxyurea processed sperm were evaluated for pattern and degree of motility. […] The percentage of motile spermatozoa was calculated by multiplying the ratio of motile to 100 spermatozoa counted by 100.
# The progressive motility of the control group sperm was higher (P<0.001; based on paired t-test comparison) than the progressive motility of the hydroxyurea processed group sperm. […] On the other hand, most of the sperm cells in the control buffer remained in a progressive motility state (motility pattern observed among sperm cells that have not acquired the ability to fertilize mature eggs). These findings are clinically significant, as progressive sperm motility is a determinant of ability of spermatozoa to penetrate cervical mucus on towards migration to the fertilization site (fallopian tubes), while that for hyperactive sperm motility (capacitation) is the motion pattern characteristic of spermatozoa that have attained the ability to fertilize mature eggs.
smiles,measurement,setting,value
"NC(=O)NO [hydroxyurea, Hydroxyurea]",oral LD50,rats [1],5780 mg/kg
same,maximum effective dose (rough maximum safe dose for humans),rats [2],≤ 5.78 mg/kg
same,Post-thaw Motility (HU; %),"[3]; liquid nitrogen at least 24 hours, thawed 35 minutes at room temperature, first figure of cell",44% and 50% and 32%
same,Post-thaw Survival Relative to Post-cool Motility (HU; %),"[3]; post-thaw, second figure of cell",71% and 76% and 49%
same,level of overall spermatozoa with motility (FIGS. 2A-2H),"[4]; HU treated, video stills over about 9 seconds, control low level",moderate to high level
same,motility maintained of the initial population of motile spermatozoa (pre-freeze),"[4]; freezing medium supplemented with HU, control 28-45%",76-84%
same,longevity among post-thaw spermatozoa versus control group,"[4]; frozen in FB+HU, post-thaw",higher
same,mean of the post-cool motility relative to post cool motility (survival of cooling process in percentage),"[4]; mean of seven HU treated samples, control 50.71",71.91%
same,overall motility,human sperm [5]; 1.0 mM HU,66.6
same,overall motility,human sperm [5]; 2.0 mM HU,68.3
same,overall percentage motility (progressively + hyperactively motile spermatozoa),"human sperm [6]; 5.0% CO2, 24 hours, control 75.4",79.0%
same,hyperactive motility,"human sperm [6]; 24 hours, control 23.0",41.3%
same,progressive sperm motility,"human sperm [6]; 24 hours, control 51.7±10.2",37.7%
